Legend:
HeLa cells = experiment: In vitro anti-proliferative SRB assay, HeLa; format: cell-based, human; conditions: for IC50: Homo sapiens, HeLa, increasing concentrations up to 30 μM, mean ± SD of at least three independent experiments; for SI (CC50 HMLE/IC50 Hela) / SI (CC50 L02/IC50 Hela): selectivity index; for SI (CC50 HMLE/IC50 Hela): HMLE vs HeLa; for SI (CC50 L02/IC50 Hela): L02 vs HeLa
Description: (§1) HepG2 and MCF7 cells were grown in the Eagle’s minimum essential medium with Earle’s balanced salts (MEM-EBSS) medium, HeLa, A549 and L02 cells were grown in Dulbecco’s Modified Eagle Media (DMEM), SW1990 cells were grown in RPMI-1640 medium, and HMLE cell were grown in DMEM/F-12 medium. […]
(§2) Cells were seeded into 96-well plates (4000 cells/well) and incubated at 37 °C in a humidified 5% CO2 atmosphere. After 24 h, the cells were treated with different concentrations of the compounds for 48 h in triplicate to generate dose-response curves. Cell viability was evaluated using the sulforhodamine B (SRB) assay as previous described.

HepG2 cells = experiment: In vitro anti-proliferative SRB assay, HepG2; format: cell-based, human; conditions: for IC50: Homo sapiens, HepG2, increasing concentrations up to 30 μM, mean ± SD of at least three independent experiments; for SI (CC50 HMLE/IC50 HepG2) / SI (CC50 L02/IC50 HepG2): selectivity index; for SI (CC50 HMLE/IC50 HepG2): HMLE vs HepG2; for SI (CC50 L02/IC50 HepG2): L02 vs HepG2
Description: as §1, §2

[1] = Cytotoxicity (SRB) against non-tumoral HMLE cells; format: cell-based, human; conditions: human, HMLE cells (non-tumoral human mammary epithelial cells); increasing concentrations up to 100 μM; mean ± SD of at least three independent experiments; read-out: Normal Human Cell Lines, CC50, HMLE
Description: (§3) All compounds were also evaluated for their cytotoxic activity against two non-tumoral human cell lines named human mammary epithelial cell (HMLE) and L02 (a human liver cell line) in Table 2 and SI values between the CC50 in non-tumoral cell lines and IC50 in tumoral cells calculated.
as §1
as §2, with “described. […] Etoposide was used as the positive control.” for “described.”

A549 cells = experiment: In vitro anti-proliferative SRB assay, A549; format: cell-based, human; conditions: for IC50: Homo sapiens, A549, increasing concentrations up to 30 μM, mean ± SD of at least three independent experiments; for SI (CC50 HMLE/IC50 A549) / SI (CC50 L02/IC50 A549): selectivity index; for SI (CC50 HMLE/IC50 A549): HMLE vs A549; for SI (CC50 L02/IC50 A549): L02 vs A549
Description: as §1, §2

[2] = Cytotoxicity (SRB) against non-tumoral L02 cells; format: cell-based, human; conditions: human, L02 cells (non-tumoral human liver cell line); increasing concentrations up to 100 μM; mean ± SD of at least three independent experiments; read-out: Normal Human Cell Lines, CC50, L02
Description: as §3, §1
as §2, with “described. […] Etoposide was used as the positive control.” for “described.”

MCF-7 cells = experiment: In vitro anti-proliferative SRB assay, MCF-7; format: cell-based, human; conditions: for IC50: Homo sapiens, MCF7, increasing concentrations up to 30 μM, mean ± SD of at least three independent experiments; for SI (CC50 HMLE/IC50 MCF7) / SI (CC50 L02/IC50 MCF7): selectivity index; for SI (CC50 HMLE/IC50 MCF7): HMLE vs MCF7; for SI (CC50 L02/IC50 MCF7): L02 vs MCF7
Description: as §1, §2

SW1990 cells = experiment: In vitro anti-proliferative SRB assay, SW1990; format: cell-based, human; conditions: for IC50: Homo sapiens, SW1990, increasing concentrations up to 30 μM, mean ± SD of at least three independent experiments; for SI (CC50 HMLE/IC50 SW1990) / SI (CC50 L02/IC50 SW1990): selectivity index; for SI (CC50 HMLE/IC50 SW1990): HMLE vs SW1990; for SI (CC50 L02/IC50 SW1990): L02 vs SW1990
Description: as §1, §2

SMILES | IC50 (HeLa cells) | SI (CC50 HMLE/IC50 Hela) (HeLa cells) | SI (CC50 L02/IC50 Hela) (HeLa cells) | IC50 (HepG2 cells) | SI (CC50 HMLE/IC50 HepG2) (HepG2 cells) | SI (CC50 L02/IC50 HepG2) (HepG2 cells) | CC50 at 48 h [1] | IC50 (A549 cells) | SI (CC50 HMLE/IC50 A549) (A549 cells) | SI (CC50 L02/IC50 A549) (A549 cells) | CC50 at 48 h [2] | IC50 (MCF-7 cells) | SI (CC50 HMLE/IC50 MCF7) (MCF-7 cells) | SI (CC50 L02/IC50 MCF7) (MCF-7 cells) | IC50 (SW1990 cells) | SI (CC50 HMLE/IC50 SW1990) (SW1990 cells) | SI (CC50 L02/IC50 SW1990) (SW1990 cells) | melting point
COc1cccc(OC)c1/C=C/C(=O)c1ccc(C)cc1 [b4, (E)-1-(4-Methylphenyl)-3-(2,6-dimethoxyphenyl)prop-2-en-1-one] | 18.6 ± 0.36 µM | 0.7 | 3.2 | 19.5 ± 1.28 µM | 0.7 | 3.1 | 13.8 ± 1.69 µM | 22.1 ± 0.6 µM | 0.6 | 2.7 | 59.6 ± 5.56 µM | 25.44 ± 0.15 µM | 0.5 | 2.3 | > 30 µM | <0.5 | <2.0 | 82.7 to 84.5 °C
COc1cccc(OC)c1/C=C/C(=O)c1ccc(C)c(C)c1 [b5, (E)-1-(3,4-Dimethylphenyl)-3-(2,6-dimethoxyphenyl)prop-2-en-1-one] | 20.3 ± 1.01 µM | 0.8 | 1.2 | 26.8 ± 0.3 µM | 0.6 | 0.9 | 15.7 ± 0.76 µM | > 30 µM | <0.5 | <0.8 | 25.2 ± 2.71 µM | 30.31 ± 0.29 µM | 0.5 | 0.8 | > 30 µM | <0.5 | <0.8 | 98.9 to 101.1 °C
COc1cccc(C(=O)/C=C/c2c(OC)cccc2OC)c1 [b7, (E)-1-(3-Methoxyphenyl)-3-(2,6-dimethoxyphenyl)prop-2-en-1-one] | 9.98 ± 0.37 µM | 0.8 | 1.8 | 6.97 ± 0.55 µM | 1.2 | 2.6 | 8.14 ± 0.53 µM | 14 ± 0.19 µM | 0.6 | 1.3 | 18.1 ± 5.82 µM | 6.37 ± 0.05 µM | 1.3 | 2.8 | 15.6 µM | 0.5 | 1.2 | 93.5 to 95.6 °C
CCOc1cccc(C(=O)/C=C/c2c(OC)cccc2OC)c1 [b9, (E)-1-(3-Ethoxyphenyl)-3-(2,6-dimethoxyphenyl)prop-2-en-1-one] | 12.2 ± 0.25 µM | 0.8 | 1.4 | 7.71 ± 0.21 µM | 1.2 | 2.3 | 9.58 ± 0.44 µM | 13.2 ± 0.43 µM | 0.7 | 1.3 | 17.4 ± 5.96 µM | 11.59 ± 0.07 µM | 0.8 | 1.5 | 10.68 ± 0.08 µM | 0.9 | 1.6 | 63.1 to 64.8 °C
CCOc1ccc(C(=O)/C=C/c2c(OC)cccc2OC)cc1 [b10, (E)-1-(4-Ethoxyphenyl)-3-(2,6-dimethoxyphenyl)prop-2-en-1-one] | 14.4 ± 0.15 µM | 1.0 | 2.6 | 10.9 ± 0.46 µM | 1.3 | 3.4 | 13.8 ± 3.77 µM | 22.7 ± 0.57 µM | 0.6 | 1.6 | 36.7 ± 3.41 µM | 19.8 ± 0.69 µM | 0.7 | 1.9 | 19.5 ± 0.23 µM | 0.7 | 1.9 | 99 to 101.2 °C
COc1cccc(OC)c1/C=C/C(=O)c1cccc(OCc2ccccc2)c1 [b12, (E)-1-(3-(Benzyloxy)phenyl)-3-(2,6-dimethoxyphenyl)prop-2-en-1-one] | 25.6 ± 1.16 µM | 1.2 | >3.9 | 23.6 ± 0.84 µM | 1.3 | >4.2 | 31.4 ± 1.12 µM | 13.25 ± 0.02 µM | 2.4 |  | > 100 µM | 29.03 ± 0.09 µM | 1.1 | >3.4 | 22.3 ± 0.07 µM | 1.4 |  | 108.8 to 110.2 °C
COc1cccc(OC)c1/C=C/C(=O)c1ccc(OCc2ccccc2)cc1 [b13, (E)-1-(4-(Benzyloxy)phenyl)-3-(2,6-dimethoxyphenyl)prop-2-en-1-one] | > 30 µM |  |  | 21.8 ± 0.62 µM | >4.6 | >4.6 | > 100 µM | > 30 µM |  |  | > 100 µM | > 30 µM |  |  | > 30 µM |  |  | 96.6 to 97.8 °C
COc1ccc(C(=O)/C=C/c2c(OC)cccc2OC)c(OCc2ccccc2)c1 [b14, (E)-1-(2-(Benzyloxy)-4-methoxyphenyl)-3-(2,6-dimethoxyphenyl)prop-2-en-1-one] | > 30 µM |  |  | > 30 µM |  |  | > 100 µM | > 30 µM |  |  | > 100 µM | > 30 µM |  |  | > 30 µM |  |  | 82.2 to 83.6 °C
COc1cc(C(=O)/C=C/c2c(OC)cccc2OC)ccc1OCc1ccccc1 [b15, (E)-1-(4-(Benzyloxy)-3-methoxyphenyl)-3-(2,6-dimethoxyphenyl)prop-2-en-1-one] | > 30 µM |  |  | > 30 µM |  |  | > 100 µM | > 30 µM |  |  | > 100 µM | > 30 µM |  |  | > 30 µM |  |  | 112.8 to 114.1 °C
CCOc1cc(OC)ccc1C(=O)/C=C/c1c(OC)cccc1OC [b17, (E)-1-(2-Ethoxy-4-methoxyphenyl)-3-(2,6-dimethoxyphenyl)prop-2-en-1-one] | 8.54 ± 0.14 µM | 1.1 | 1.3 | 12 ± 0.23 µM | 0.8 | 0.9 | 9.03 ± 0.8 µM | 9.33 ± 0.3 µM | 1.0 | 1.2 | 10.9 ± 0.42 µM | 7.74 ± 0.1 µM | 1.2 | 1.4 |  | 0.8 | 1.0 | 98.7 to 100.2 °C
COc1ccc(C(=O)/C=C/c2c(OC)cccc2OC)cc1OC [b19, (E)-1-(3,4-Dimethoxyphenyl)-3-(2,6-dimethoxyphenyl)prop-2-en-1-one] | 9.26 ± 0.04 µM | 1.1 | 4.3 | 7.12 ± 0.67 µM | 1.5 | 5.6 | 10.5 ± 0.41 µM | 13.6 ± 0.85 µM | 0.8 | 2.9 | 39.8 ± 6.32 µM | 19.7 ± 0.2 µM | 0.5 | 2.0 | 13.84 ± 0.06 µM | 0.8 | 2.9 | 120.5 to 122.7 °C
COc1cccc(OC)c1/C=C/C(=O)c1ccc2c(c1)OCO2 [b20, (E)-1-(Benzo[d][1,3]dioxol-5-yl)-3-(2,6-dimethoxyphenyl)prop-2-en-1-one] | 16.2 ± 0.95 µM | 0.9 | 3.8 | 17.5 ± 0.54 µM | 0.8 | 3.5 | 14.2 ± 1.06 µM | 19.5 ± 0.9 µM | 0.7 | 3.1 | 60.9 ± 5.61 µM | 22.5 ± 0.37 µM | 0.6 | 2.7 | 25.9 ± 0.65 µM | 0.5 | 2.4 | 138.6 to 140.4 °C

Reference: article PMC6271338, “Synthesis and Cytotoxic Evaluation of Alkoxylated Chalcones” (Molecules, 2014)
